According to PMC9598656, “In Vitro Activity of Robenidine Analogues NCL259 and NCL265 against Gram-Negative Pathogens” (Antibiotics, 2022):
Values after ≈ are worked out from the molar mass of the structure shown. Where two headings read alike, the source gives them in different places.

How the values were obtained:
[1] = test system: Caco-2 (human colorectal adenocarcinoma cell line); assay: In vitro cytotoxicity, WST-1; type: cell-based; conditions: Caco-2, 24 h
[2] = test system: E. coli BW 25113 (∆AcrB); assay: MIC, efflux-pump mutant; type: cell-based, Escherichia coli; conditions: for reduction of MIC in the ∆AcrB mutant compared to wild-type: E. coli BW 25113 ∆AcrB vs wild-type parent; for MIC: Escherichia coli, read-out: MIC Values
Experimental: (§1) A variety of Gram-negative reference strains (E. coli ATCC 25922, E. coli ATCC 10763, P. aeruginosa PAO1, P. aeruginosa ATCC 27853, A. baumannii ATCC 12457, A. baumannii ATCC 19606, K. pneumoniae ATCC 4352 and K. pneumoniae ATCC 33495) were used for initial screening and combination testing with PMB. The organisms were speciated using biochemical testing and MALDI-TOF mass spectrometry (Bruker, Preston, VIC, Australia). Activity testing of NCL259 and NCL265 was also carried out on 51 extraintestinal clinical E. coli isolates from companion animals, and 83 porcine and bovine enterotoxigenic E. coli (ETEC) isolates from the Australian Centre for Antimicrobial Resistance Ecology collection. E. coli wild-type (BW 25113) and its mutant BW 25113∆AcrB, in which the inner membrane component AcrB of the tripartite multidrug efflux system AcrA/AcrB/TolC has been deleted, were obtained from the bacterial collection held at Health and Biomedical Innovation, Clinical and Health Sciences, The University of South Australia. All isolates were cultured on sheep blood agar (SBA) plates at 37 °C for 18 h before being subcultured into Luria Bertaini (LB) (Oxoid, Scoresby, VIC, Australia) broth and grown to A600nm = 0.5 (equivalent to approx. 1.5 × 10^8 colony-forming units (CFU)/mL).
(§2) MICs for NCL259 and NCL265 (serial two-fold dilutions commencing at 256 µg/mL) were determined (in duplicate) in round bottom 96–well microtitre trays (Sarstedt 82.1582.001), using the broth micro-dilution method recommended by the Clinical and Laboratory Standards Institute (CLSI). We have shown previously that robenidine can chelate calcium ions from cation-adjusted Mueller-Hinton broth, which causes the loss of activity of robenidine. Therefore, LB broth was used in this study. Additionally, considering the low solubility of robenidine and its analogues in aqueous solutions, two-fold serial dilutions of stock solutions of these compounds were prepared in 100% DMSO [21]. The MIC for ampicillin against each isolate was determined for each test to serve as an internal quality control. The MICs of isolates were determined by visual reading and using an EnSpire Multimode Plate Reader 2300 at A600nm.

[3] = test system: Vero (normal adult African green monkey cell line); assay: In vitro cytotoxicity, WST-1; type: cell-based; conditions: Chlorocebus sabaeus, 24 h
Excerpt: (§3) Potential toxicity of NCL259 and NCL265 to mammalian cells relative to the parent compound (NCL812) was examined using Caco-2 (human colorectal adenocarcinoma cell line), HEL 299 (non-cancerous human lung fibroblast cell line), Hep G2 (human hepatocellular carcinoma cell line), MCF-7 (human mammary gland adenocarcinoma cell line), MDBK (normal Madin–Darby bovine kidney cell line) and Vero (normal adult African green monkey cell line), essentially as described previously. Toxicity to the cell lines was performed using serial two-fold dilutions of each compound from 128 to 1 μg/mL in duplicates in flat bottom 96 well tissue culture trays (Sarstedt 83.3924) containing approximately 2 × 10^4 cells per well in antibiotic-free Dulbecco’s Modified Eagle’s Medium (DMEM; Gibco Cat No: 12430; Thermo Fisher Scientific, Scoresby, VIC, Australia) consisting of 10% (v/v) fetal bovine serum at 37 °C, 5% CO2 for 24 h. Duplicate wells containing ampicillin at 128 to 1 μg/mL were used as controls. Thereafter, 10% (v/v) of the WST-1 cell proliferation assay reagent (Cat No: 05015944001; Roche Life Science, North Ryde, NSW, Australia) was added to each well, the trays were further incubated at 37 °C, 5% CO2 for 1 h and absorbance read at A450nm on a Multiskan Ascent 354 Spectrophotometer (Labsystems, Lilydale, VIC, Australia). The inhibitory concentration of each compound was determined as the half maximal inhibitory concentration (IC50) at A450nm.

[4] = test system: Hep G2 (human hepatocellular carcinoma cell line); assay: In vitro cytotoxicity, WST-1; type: cell-based; conditions: HepG2, 24 h
Excerpt: as §3

[5] = test system: HEL 299 (non-cancerous human lung fibroblast cell line); assay: In vitro cytotoxicity, WST-1; type: cell-based; conditions: HEL 299, 24 h
Excerpt: as §3

[6] = test system: K. pneumoniae 13GNB–429, K. pneumoniae 13GNB–550 and K. oxytoca 13GNB–582; assay: MIC, three resistant Klebsiella isolates; type: cell-based; conditions: three resistant Klebsiella spp. isolates
Experimental: as §2

[7] = test system: P. aeruginosa ATCC 27853; assay: MIC, broth micro-dilution; type: cell-based, Pseudomonas aeruginosa; conditions: Pseudomonas aeruginosa, ATCC27853, read-out: MIC, Single Drug
Experimental: as §1, §2

[8] = test system: P. aeruginosa PAO1; assay: MIC, broth micro-dilution; type: cell-based, Pseudomonas aeruginosa; conditions: Pseudomonas aeruginosa, read-out: MIC, Single Drug
Experimental: as §1, §2

[9] = first of two independent experiments
[10] = second of two independent experiments

[H]/N=C(\N)NN=C(CCCCCC)c1ccc(Cl)cc1 [NCL265, (E)-2-(1-(4-chlorophenyl)heptylidene)hydrazine-1-carboximidamide]
IC50 [1, 9]: < 1 µg/mL
IC50 [1, 10]: < 2 µg/mL
reduction of MIC in the ∆AcrB mutant compared to wild-type [2]: 16 fold
MIC [2]: 1 µg/mL
IC50 [3, 9]: 6 µg/mL (≈ 21.4 µM)
IC50 [3, 10]: 3 µg/mL (≈ 10.7 µM)
IC50 [4, 9]: < 1 µg/mL
IC50 [4, 10]: < 1 µg/mL
IC50 [5, 9]: < 2 µg/mL
IC50 [5, 10]: < 2 µg/mL
MIC [6]: > 256 µg/mL
MIC ([6]; read-out: MIC): > 256 µg/mL
MIC [7]: 32 µg/mL
MIC [8]: 64 µg/mL

[H]/N=C(\N)NN=C(CC1CCCCC1)c1ccc(Cl)cc1 [NCL259, (E)-2-(1-(4-chlorophenyl)-2-cyclohexylethylidene)hydrazine-1-carboximidamide]
IC50 [1, 9]: < 1 µg/mL
IC50 [1, 10]: 3 µg/mL (≈ 10.2 µM)
reduction of MIC in the ∆AcrB mutant compared to wild-type [2]: 16 fold
MIC [2]: 4 µg/mL
IC50 [3, 9]: 6 µg/mL (≈ 20.5 µM)
IC50 [3, 10]: 3 µg/mL (≈ 10.2 µM)
IC50 [4, 9]: < 1 µg/mL
IC50 [4, 10]: < 1 µg/mL
IC50 [5, 9]: < 2 µg/mL
IC50 [5, 10]: < 2 µg/mL
MIC [6]: > 256 µg/mL
MIC ([6]; read-out: MIC): > 256 µg/mL
MIC [7]: 64 µg/mL
MIC [8]: 64 µg/mL
